Four molecules from US9567641B2, “Combination therapy for the treatment of cancer using an anti-C-met antibody” (SAMSUNG ELECTRONICS CO., LTD., priority 2013, dated 2017) can be followed below.

Assay [1] relates to L3-1Y/IgG2 antibody resistance acquired EBC1 lung cancer cells. The assay can be described thus: Cell viability, CellTiter Glo, resistance-acquired cell line. Format: cell-based. The following applies: ABT-263 0.5 uM co-treated with L3-1Y/IgG2 (1/5 dilutions from 2 ug/ml), 72 h. The method, then:
To verify whether or not the resistance acquired by repetitive administration of anti-c-Met antibody can be overcome by BCL2L1 inhibition, L3-1Y/IgG2 antibody resistance acquired EBC1 cells, where the resistance against L3-1Y/IgG2 antibody is acquired by treating EBC1 lung cancer cells (JCRB, JCRB0820) with the L3-1Y/IgG2 antibody for at least 3 months, were used. The L3-1Y/IgG2 antibody resistance acquired EBC1 lung cancer cells were prepared referring to Example 4.3.
5000 cells of the L3-1Y/IgG2 antibody resistance acquired EBC1 cells were seeded onto a 96-well plate and 24 hours after, the plate was treated with a BCL2 family inhibitor, ABT-263 (Abbott Laboratories) and 72 hours later after the antibody treatment, a change in the number of cells was measured using CellTiter Glo assay. ABT-263 was treated at a fixed concentration of 0.5 uM, and the L3-1Y/IgG2 antibody was treated by ⅕ dilution each time starting from 2 ug/ml.
In general terms: ATP-based viability assays read luminescence as a measure of living cells.

The subject of assay [2] is MKN45 gastric cancer cell line with acquired resistance against L3-1Y/IgG2 antibody. Described as above. It is filed as cell-based. Conditions: 72 h. The procedure:
To see whether the treatment RAF1 siRNA can overcome resistance acquired due to the repetitive treatment of an antibody, tests were carried out using MKN45 gastric cancer cell line which had been treated by L3-1Y/IgG2 antibody for 3 months or longer and acquired resistance against it. The resistance-acquired MKN45 gastric cancer cell line was prepared as follows: MKN45 cells (JCRB, JCRB0254) were treated with L3-1Y/IgG2 antibody in amounts being increased over 3 months or longer. The amount of L3-1Y/IgG2 antibody to be treated started from its initial treatment concentration of 1 ug/ml and was increased up to 10 ug/ml until resistance occurred. To confirm the acquisition of L3-1Y/IgG2 antibody resistance, the resistance-acquired clones were treated or not treated with L3-1Y/IgG2 antibody and then incubated, followed by CTG assays.
As a control group, All Negative control siRNA (Qiagen, cat. no. 1027281) was used, and as a target siRNA, a mixture of two kinds of siRNAs (see Table 7) that had effects during the screening was used. […]
(§1) 5000 cells of MKN45 cells which have acquired resistance against L3-1Y/IgG2 antibody were seeded onto a 96-well plate, and 24 hours after, the plate was treated with L3-1Y/IgG2 antibody and an ITGB3 inhibitor, cilengitide (Merck KGaA, EMD 121974). 72 hours later after the treatment, a change in the number of cells was measured using CellTiter Glo assay. The MKN45 cells which have acquired resistance against L3-1Y/IgG2 antibody were prepared referring to Example 4.3. Cilengitide was treated at a fixed concentration of 10 uM, and the L3-1Y/IgG2 antibody was treated by ⅕ dilution each time starting from 2 ug/ml. For comparison, the same test was conducted using L3-1Y/IgG2 antibody alone.
as §1, with “AKT” for “ITGB3”, “MK-2206” for “cilengitide”, “& Co Inc).” for “KGaA, EMD 121974).”, “MK-2206” for “Cilengitide”, “5” for “10”
To verify whether or not the resistance acquired by repetitive administration of anti-c-Met antibody can be overcome by BCL2L1 inhibition, L3-1Y/IgG2 antibody resistance acquired MKN45 cells, where the resistance against L3-1Y/IgG2 antibody is acquired by treating MKN45 gastric cancer cells (JCRB, JCRB0254) with the L3-1Y/IgG2 antibody for at least 3 months, were used. The L3-1Y/IgG2 antibody resistance acquired MKN45 gastric cancer cells were prepared referring to Example 4.3. […]

Assay [3] concerns MKN45 gastric cancer cell line. Nature of the assay: Cell viability, CellTiter Glo, combination with L3-1Y/IgG2 antibody. The following applies: ABT-263 5 uM co-treated with L3-1Y/IgG2 0.08 ug/ml, 72 h. It is filed as cell-based.
The subject of assay [4] is HCC1806 breast cancer cells. Described as above. It is filed as cell-based. The following applies: 72 h. The method, then: The efficacy of the combination administration of ITGB3 siRNA and L3-1Y/IgG2 antibody was examined in a breast cancer cell line on which the anti-c-Met antibody alone has no effects. For this, HCC1806 (ATCC, CRL-2335) and HCC1954 (ATCC, CRL-2338) cells were used.
As a control group, All Negative control siRNA (Qiagen, cat. no. 1027281) was used, and as a target siRNA, a mixture of two kinds of siRNAs (see Table 7) that had effects during the screening was used. Transfection was carried out by the same procedures as Example 3.1 and after 24 hours, the cultured cells were treated with L3-1Y/IgG2 antibody at 0 ug/ml, 0.016 ug/ml, 0.08 ug/ml, 0.4 ug/ml, or 2 ug/ml. 72 hours later after the treatment, 100 uL of CellTiter Glo solution (Promega, G7572) was added to each well, which was allowed to stay at a room temperature for 30 min. The number of cells was counted via luminescence signals, which were recorded using Envision 2104 Multi-label Reader (Perkin Elmer).
To verify the effect of the combination therapy using ITGB3 inhibitor and anti-c-Met antibody in breast cancer cells on which the anti-c-Met antibody has no effects, HCC1806 (ATCC, CRL-2335) cells were used. The HCC 1806 cells are a cell line known to have high amounts of c-Met.
5000 cells of HCC1806 cells were seeded onto a 96-well plate, and 24 hours after, the plate was treated with L3-1Y/IgG2 antibody and an ITGB3 inhibitor, cilengitide (Merck KGaA, EMD 121974). 72 hours later after the treatment, a change in the number of cells was measured using CellTiter Glo assay. Cilengitide was treated at a fixed concentration of 10 uM, and the L3-1Y/IgG2 antibody was treated by ⅕ dilution each time starting from 2 ug/ml. For comparison, the same test was conducted using L3-1Y/IgG2 antibody alone.
The efficacy of combination administration was examined in a breast cancer cell line on which the anti-c-Met antibody has no effects. For this, HCC1806 (ATCC, CRL-2335) cells were used.
5000 HCC1806 cells were seeded onto a 96-well plate and 24 hours after, the plate was treated with L3-1Y/IgG2 antibody and an AKT inhibitor, MK-2206 (Merck & Co Inc) and 72 hours later after the antibody treatment, a change in the number of cells was measured using CellTiter Glo assay. MK-2206 was treated at a fixed concentration of 10 uM, and the L3-1Y/IgG2 antibody was treated by ⅕ dilution each time starting from 2 ug/ml. For comparison, the same test was conducted using L3-1Y/IgG2 antibody alone.

The target in the next assay is c-Met (Homo sapiens, UniProt P08581). Nature of the assay: Affinity / specificity for c-Met. Format: binding. The following applies: expressed scFv.
Where [5] appears, read: cilengitide 10 uM co-treated with L3-1Y/IgG2 (1/5 dilutions from 2 ug/ml).

Sequence of c-Met (P08581 25-1390): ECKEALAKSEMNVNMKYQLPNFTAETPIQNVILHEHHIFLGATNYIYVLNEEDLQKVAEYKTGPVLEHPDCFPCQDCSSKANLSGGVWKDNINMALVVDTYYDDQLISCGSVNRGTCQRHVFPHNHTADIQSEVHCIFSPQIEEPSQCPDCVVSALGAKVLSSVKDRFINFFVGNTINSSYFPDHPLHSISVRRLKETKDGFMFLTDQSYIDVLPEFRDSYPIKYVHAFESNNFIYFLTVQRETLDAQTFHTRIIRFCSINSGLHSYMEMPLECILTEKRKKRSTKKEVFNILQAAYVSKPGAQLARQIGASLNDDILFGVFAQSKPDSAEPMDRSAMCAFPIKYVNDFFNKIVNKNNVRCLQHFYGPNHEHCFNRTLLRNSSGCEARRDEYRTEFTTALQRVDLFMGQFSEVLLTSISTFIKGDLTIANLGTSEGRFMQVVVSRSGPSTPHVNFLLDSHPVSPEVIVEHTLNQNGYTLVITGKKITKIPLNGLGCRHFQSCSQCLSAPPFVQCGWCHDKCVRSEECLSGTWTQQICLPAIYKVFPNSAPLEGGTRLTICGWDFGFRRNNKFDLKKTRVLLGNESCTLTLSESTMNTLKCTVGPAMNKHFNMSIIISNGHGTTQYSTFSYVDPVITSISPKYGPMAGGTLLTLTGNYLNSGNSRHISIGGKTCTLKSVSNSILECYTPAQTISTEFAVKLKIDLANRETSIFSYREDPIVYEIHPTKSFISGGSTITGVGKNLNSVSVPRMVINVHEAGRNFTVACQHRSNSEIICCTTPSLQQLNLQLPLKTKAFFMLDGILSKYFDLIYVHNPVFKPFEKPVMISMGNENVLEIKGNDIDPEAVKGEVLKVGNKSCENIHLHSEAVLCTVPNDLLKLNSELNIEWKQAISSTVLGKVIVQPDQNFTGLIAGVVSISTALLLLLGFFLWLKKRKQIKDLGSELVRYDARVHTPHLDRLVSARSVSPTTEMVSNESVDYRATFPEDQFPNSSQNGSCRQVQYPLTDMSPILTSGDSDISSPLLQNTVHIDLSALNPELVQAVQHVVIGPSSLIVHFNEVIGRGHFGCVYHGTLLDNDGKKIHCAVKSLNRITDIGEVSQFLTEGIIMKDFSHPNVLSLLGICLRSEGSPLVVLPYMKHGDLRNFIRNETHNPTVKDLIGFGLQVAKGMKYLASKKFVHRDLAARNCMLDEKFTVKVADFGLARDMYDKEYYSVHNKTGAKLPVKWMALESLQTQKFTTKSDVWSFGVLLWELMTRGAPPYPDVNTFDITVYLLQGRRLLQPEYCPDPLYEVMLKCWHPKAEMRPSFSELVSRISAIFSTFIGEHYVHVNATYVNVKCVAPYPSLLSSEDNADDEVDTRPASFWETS

For the molecule `CC1(C)CCC(c2ccc(Cl)cc2)=C(CN2CCN(c3ccc(C(=O)NS(=O)(=O)c4ccc(N[C@H](CCN5CCOCC5)CSc5ccccc5)c(S(=O)(=O)C(F)(F)F)c4)cc3)CC2)C1` [ABT-263, 4-[4-[[2-(4-Chlorophenyl)-5,5-dimethyl-1-cyclohexen-1-yl]methyl]-1-piperazinyl]-N-[[4-[[(1R)-3-(4-morpholinyl)-1-[(phenylthio)methyl]propyl]amino]-3-[(trifluoromethyl)sulfonyl]phenyl]sulfonyl]benzamide], the “cancer cell growth inhibitory effect (cell viability)” value in assay [1] and in assay [2] (ABT-263 2.5 uM co-treated with L3-1Y/IgG2 (1/5 dilutions from 2 ug/ml)) was “can be achieved” each time. The “growth inhibitory effect (cell viability)” value in assay [3] is listed as “increased compared to the case that the L3-1Y/IgG2 antibody was treated alone”.
Turning to `NC1(c2ccc(-c3nc4ccn5c(=O)[nH]nc5c4cc3-c3ccccc3)cc2)CCC1` [MK-2206, 8-(4-(1-aminocyclobutyl)phenyl)-9-phenyl-[1,2,4]triazolo[3,4-f][1,6]naphthyridin-3(2H)-one, reference compound], the “cancer cell growth inhibitory efficacy (cell viability)” value in assay [4] (MK-2206 10 uM co-treated with L3-1Y/IgG2 (1/5 dilutions from 2 ug/ml)) is “exhibited”. In addition, the “growth inhibitory effect (cell viability)” value in assay [2] (MK-2206 5 uM co-treated with L3-1Y/IgG2 (1/5 dilutions from 2 ug/ml)) is listed as “exhibited”.
Consider `CC(C)[C@H]1C(=O)N[C@@H](CCCNC(=N)N)C(=O)NCC(=O)N[C@@H](CC(=O)O)C(=O)N[C@H](Cc2ccccc2)C(=O)N1C` [cilengitide, Cyclo(L-arginylglycyl-L-α-aspartyl-D-phenylalanyl-N-methyl-L-valyl), reference compound], for which the “growth inhibitory effect (cell viability)” value in assay [4] (setting [5]) and in assay [2] (setting [5]) was “exhibited” each time.

B1: scFv of huAbF46: scFv of huAbF46, VH-linker-VL, encoded by SEQ ID NO: 55 (protein)
scFv: EVQLVESGGGLVQPGGSLRLSCAASGFTFTDYYMSWVRQAPGKGLEWLGFIRNKANGYTTEYSASVKGRFTISRDNSKNTLYLQMNSLRAEDTAVYYCARDNWFAYWGQGTLVTVSSGLGGLGGGGSGGGGSGGSSGVGSDIQMTQSPSSLSASVGDRVTITCKSSQSLLASGNQNNYLAWHQQKPGKAPKMLIIWASTRVSGVPSRFSGSGSGTDFTLTISSLQPEDFATYYCQQSYSAPLTFGQGTKVEIKR
With B1, the “specificity to c-Met” value with c-Met is listed as “specificity to c-Met”.
